Here are results for one compound from patent US20200181284A1, “EPIGENETIC INHIBITORS FOR SENSITIZING HEMATOLOGIC OR OTHER MALIGNANCIES TO GLUCOCORTICOID THERAPY” (UNIVERSITY OF SOUTHERN CALIFORNIA, priority 2017, published 2020).

Assay [1] relates to SUP-B15. Nature of the assay: Cell death assay (PrestoBlue viability, 3 days). As to conditions: SUP-B15, highest concentration (10 μM), 3 days. Type of assay: cell-based, human. The procedure:
(§1) Cell death assays: We used PrestoBlue to measure cell viability in response to knockdown and treatment. Cells were grown to a density of 250,000 cell/ml, then dispensed into black tissue culture plates and grown overnight. In the morning, cells were treated. For both CAL-101 (Selleckchem, S2226) and dex (Sigma, D4902), viability was measured after 3 days. As PrestoBlue measures NADPH/NADH metabolites, the balance of which can be affected by GC treatment, we performed frequent cell count spot checks manually by trypan blue exclusion to ensure that fluorescence measurements reflected true viability. Both CAL-101 and dex were dissolved in ethanol, and used 1:1000 in cell culture for a final ethanol concentration of 0.1%. Combination treatments were performed in triplicate in 384 well plates with 20 dilutions of dex from 10^M to 0 and 9 dilutions of CAL-101 from 10^M to 0. Viabilities and EC50 were then calculated using four parameter non-least squares fitting using Prism 6. qPCR of Causative genes: Cells were grown to a density of 1 million cells/ml, then aliquoted into 6 well plates in the afternoon, then grown overnight. Cells were then treated with the drugs and times indicated, at which point cells were spun down at 400 g for 5 minutes, the medium aspirated, and the pellet resuspended in 0.7 ml Qiazol/Trizol and frozen. RNA was then isolated using the miRNAeasy protocol. cDNA was then prepared form 1^g of RNA suing SuperScript3, and qPCR performed using BioRad iQ mix. Primers for qPCR were designed using the IDT web site, then tested for each gene. […] Expression levels for each gene were corrected for primer efficiency, normalized to RPL19, then compared to controls (Pfaffl, 2001).
The optimal signal was determined by incubating cells with 1 ^M dex for 0, 4, 8, and 24 hours. […] Cells were incubated with dex alone, CAL-101 alone, and in combination for 24 hours, then harvested and qPCR performed as described above. Each experiment was performed at least three times, and analyzed using GraphPad (Prism 6). Significant differences between drug and control and between either drug alone and combinations was determined by two sided Student's t-test (P-Value<0.05).
Three cell lines (NALM6, SUP-B15, and RCH-ACV), one resistant patient sample (HM3101), and one relapsed Phlike xenograft (ALL121) were incubated with increasing concentrations of dex or CAL-101 for 3 days. Cell viability was measured by PrestoBlue staining. Curves, values, and errors are based on at least 3 replicates. Bar plot of the EC50, calculated by four-parameter least-squares fitting (Both plotted and calculated in GraphPad Prism).

Assay [2] has as its system resistant patient sample HM3101. Nature of the assay: Cell death assay (PrestoBlue viability, 3 days). It is filed as cell-based, human. The following applies: HM3101, highest concentration (10 μM). The procedure: Cell death assays: We used PrestoBlue to measure cell viability in response to knockdown and treatment. Cells were grown to a density of 250,000 cell/ml, then dispensed into black tissue culture plates and grown overnight. In the morning, cells were treated. For both CAL-101 (Selleckchem, S2226) and dex (Sigma, D4902), viability was measured after 3 days. As PrestoBlue measures NADPH/NADH metabolites, the balance of which can be affected by GC treatment, we performed frequent cell count spot checks manually by trypan blue exclusion to ensure that fluorescence measurements reflected true viability. Both CAL-101 and dex were dissolved in ethanol, and used 1:1000 in cell culture for a final ethanol concentration of 0.1%. […] Viabilities and EC50 were then calculated using four parameter non-least squares fitting using Prism 6. qPCR of Causative genes: Cells were grown to a density of 1 million cells/ml, then aliquoted into 6 well plates in the afternoon, then grown overnight. […]
The results as shown in FIGS. 14A-14B generally highlight the EC50 of BCP-ALL specimens for dexamethasone and CAL-101. […] Cell viability was measured by PrestoBlue staining. […] Bar plot of the EC50, calculated by four-parameter least-squares fitting (Both plotted and calculated in GraphPad Prism). […]

In assay [3] the test system is five B-ALL samples (NALM-6, SUP-B15, RCH-ACV, HM3101, ALL121). Nature of the assay: Combination of dex and CAL-101: isoboles and combination index (Calcusyn). It is filed as cell-based, human. As to conditions: lowest value over the samples; super additive <1, Calcusyn. How it is done: Cell death assays: We used PrestoBlue to measure cell viability in response to knockdown and treatment. Cells were grown to a density of 250,000 cell/ml, then dispensed into black tissue culture plates and grown overnight. In the morning, cells were treated. For both CAL-101 (Selleckchem, S2226) and dex (Sigma, D4902), viability was measured after 3 days. As PrestoBlue measures NADPH/NADH metabolites, the balance of which can be affected by GC treatment, we performed frequent cell count spot checks manually by trypan blue exclusion to ensure that fluorescence measurements reflected true viability. Both CAL-101 and dex were dissolved in ethanol, and used 1:1000 in cell culture for a final ethanol concentration of 0.1%. Combination treatments were performed in triplicate in 384 well plates with 20 dilutions of dex from 10^M to 0 and 9 dilutions of CAL-101 from 10^M to 0. Viabilities and EC50 were then calculated using four parameter non-least squares fitting using Prism 6. qPCR of Causative genes: Cells were grown to a density of 1 million cells/ml, then aliquoted into 6 well plates in the afternoon, then grown overnight. Cells were then treated with the drugs and times indicated, at which point cells were spun down at 400 g for 5 minutes, the medium aspirated, and the pellet resuspended in 0.7 ml Qiazol/Trizol and frozen. […]

Assay [4] relates to relapsed B-ALL cells (ALL121). Put plainly: PDX model of ALL: NSG mice engrafted with ALL121, spleen size and human ALL cells in spleen. Type of assay: in vivo. The following applies: idela monotherapy 50 mg/kg daily, two weeks.
Description: As proof of concept, we tested this combination in a PDX model of ALL.
For assay [5], the system named is NALM-6. Nature of the assay: qPCR of effector genes, dex and CAL-101 alone and combined, 24 hours. Type of assay: cell-based, human. The following applies: NALM-6, CAL-101 alone. How it is done:
as §1
(§2) The optimal signal was determined by incubating cells with 1 ^M dex for 0, 4, 8, and 24 hours. […] Each experiment was performed at least three times, and analyzed using GraphPad (Prism 6). Significant differences between drug and control and between either drug alone and combinations was determined by two sided Student's t-test (P-Value<0.05).

The test system of assay [6] is RCH-ACV. The assay is described as above. It is filed as cell-based, human. The following applies: addition of CAL-101 to dex. How it is done: as §1, §2
Assay [7] concerns SUP-B15. Described as above. Type of assay: cell-based, human. As to conditions: SUP-B15, addition of CAL-101 to dex. How it is done: as §1, §2

The structures appear in SMILES notation.

Consider `CC[C@H](Nc1ncnc2[nH]cnc12)c1nc2cccc(F)c2c(=O)n1-c1ccccc1` [CAL-101], for which the “death caused by CAL-101” value in assay [1] and in assay [2] was < 50% each time. Also, in assay [3], the “combination index of dex and CAL-101” value was ≥ 0.13. Moreover, the “effect on spleens (spleen size)” value in assay [4] is “no effect”. In addition, the TXNIP regulation result in assay [5] is recorded as “no effect”. Also, the PIK3CD expression result in assay [6] and in assay [7] was “no significant effect” in each case.
